Results from US10544130B2, “Metallo-beta-lactamase inhibitors” (priority 2015, dated 2020).

Columns and labels:
[1] = test system: Escherichia coli expressing NDM-1 (CLB30005, CLB30016); assay type: cell-based; conditions: with imipenem 1 μg/ml; 95% inhibition of bacterial growth
Method in brief: (§1)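 Growth read by absorbance after 22–24 h at 35 °C in CAMHB, with test compound alone or combined with 1 μg/ml imipenem. Inocula came from overnight 35 °C blood-agar colonies, set to a defined OD600 and diluted 1:100. Value is the inhibitor concentration giving synergy.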

[2] = test system: Serratia marcescens expressing IMP-1 (CL5741); assay type: cell-based; conditions: with imipenem 1 μg/ml; 95% inhibition of bacterial growth
Method in brief: as §1

[3] = test system: Pseudomonas aeruginosa PAO1 MB9798 (efflux+, IMP-1); conditions: ratio MITC95 PA 9798/MITC95 PA 9799; imipenem at 2 μg/mL
Method in brief: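 Isogenic PAO1 pair (efflux+ MB9798, efflux− MB9799, both IMP-1) tested by microbroth MIC with fixed imipenem and/or ceftazidime, usually at CLSI breakpoint, plus fixed class A/C inhibitor against AmpC. MBL inhibitor titrated; concentration restoring susceptibility recorded and fold difference between strains taken as efflux extent.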

Compound: NCC(CO)(CO)NS(=O)(=O)c1ccc(-c2cccc3[nH]c(N)nc23)c(-c2nn[nH]n2)c1S(N)(=O)=O [Example 247, 4-(2-amino-1H-benzo[d]imidazol-4-yl)-N-1-(1-amino-3-hydroxy-2-(hydroxymethyl)propan-2-yl)-3-(2H-tetrazol-5-yl)benzene-1,2-disulfonamide]
- Escherichia coli (NDM-1) MITC95 [1]: 0.7813 µM
- Serratia marcescens (IMP-1) MITC95 [2]: 1.563 µM
- Efflux ratio [3]: 2.00

Compound: Cn1c(N)nc2c(-c3ccc(S(=O)(=O)NC[C@H](O)CN)c(S(N)(=O)=O)c3-c3nn[nH]n3)cccc21 [Example 302, (R)-4-(2-amino-1-methyl-1H-benzo[d]imidazol-4-yl)-N1-(3-amino-2-hydroxypropyl)-3-(2H-tetrazol-5-yl)benzene-1,2-disulfonamide]
- Escherichia coli (NDM-1) MITC95 [1]: 0.7813 µM
- Serratia marcescens (IMP-1) MITC95 [2]: 0.7813 µM
- Efflux ratio [3]: 1.00

Compound: NCc1nc2c(-c3ccc(S(=O)(=O)NC(CN)CN)c(S(N)(=O)=O)c3-c3nn[nH]n3)cccc2[nH]1 [Example 385, 4-(2-(Aminomethyl)-1H-benzo[d]imidazol-4-yl)-N1-(1,3-diaminopropan-2-yl)-3-(2H-tetrazol-5-yl)benzene-1,2-disulfonamide]
- Escherichia coli (NDM-1) MITC95 [1]: 0.7813 µM
- Serratia marcescens (IMP-1) MITC95 [2]: 0.7813 µM
- Efflux ratio [3]: 1.00

Compound: Nc1ncc(-c2ccc(S(=O)(=O)N[C@@H]3CNC[C@@H]3N)c(S(N)(=O)=O)c2-c2nn[nH]n2)s1 [Example 321, N^1-((3R,4S)-4-aminopyrrolidin-3-yl)-4-(2-aminothiazol-5-yl)-3-(2H-tetrazol-5-yl)benzene-1,2-disulfonamide]
- Escherichia coli (NDM-1) MITC95 [1]: 0.7813 µM
- Serratia marcescens (IMP-1) MITC95 [2]: 1.563 µM
- Efflux ratio [3]: 2.00

Compound: NCc1nc2cc(-c3ccc(S(=O)(=O)N[C@@H]4CCNC4)c(S(N)(=O)=O)c3-c3nn[nH]n3)ccc2s1 [Example 275, (R)-4-(2-(aminomethyl)benzo[d]thiazol-5-yl)-N^1-(pyrrolidin-3-yl)-3-(2H-tetrazol-5-yl)benzene-1,2-disulfonamide]
- Escherichia coli (NDM-1) MITC95 [1]: 0.7813 µM
- Serratia marcescens (IMP-1) MITC95 [2]: 0.7813 µM
- Efflux ratio [3]: 1.00

Compound: NC[C@H](O)CNS(=O)(=O)c1ccc(-c2cccc3[nH]c(N)nc23)c(-c2nn[nH]n2)c1S(N)(=O)=O [Example 304, (S)-4-(2-amino-1H-benzo[d]imidazol-4-yl)-N1-(3-amino-2-hydroxypropyl)-3-(2H-tetrazol-5-yl)-benzene-1,2-disulfonamide]
- Escherichia coli (NDM-1) MITC95 [1]: 0.3906 µM
- Serratia marcescens (IMP-1) MITC95 [2]: 0.7813 µM
- Efflux ratio [3]: 0.50

Compound: NC(=O)c1nc2c(-c3ccc(S(=O)(=O)N[C@@H]4CCNC4)c(S(N)(=O)=O)c3-c3nn[nH]n3)cccc2[nH]1 [Example 271, (R)-4-(4-(N-(pyrrolidin-3-yl)sulfamoyl)-3-sulfamoyl-2-(2H-tetrazol-5-yl)phenyl)-1H-benzo[d]imidazole-2-carboxamide]
- Escherichia coli (NDM-1) MITC95 [1]: 1.563 µM
- Serratia marcescens (IMP-1) MITC95 [2]: 0.7813 µM
- Efflux ratio [3]: 0.50

Compound: NC[C@H](CO)NS(=O)(=O)c1ccc(-c2cccc(N)n2)c(-c2nn[nH]n2)c1S(N)(=O)=O [Example 364, (R)—N^1-(1-amino-3-hydroxypropan-2-yl)-4-(6-aminopyridin-2-yl)-3-(2H-tetrazol-5-yl)benzene-1,2-disulfonamide]
- Escherichia coli (NDM-1) MITC95 [1]: 3.125 µM
- Serratia marcescens (IMP-1) MITC95 [2]: 3.125 µM
- Efflux ratio [3]: 2.00

Compound: NS(=O)(=O)c1c(S(=O)(=O)N[C@@H]2CCNC2)ccc(-c2cccc3ncccc23)c1-c1nn[nH]n1 [Example 287, (R)-N1-(pyrrolidin-3-yl)-4-(quinolin-5-yl)-3-(2H-tetrazol-5-yl)benzene-1,2-disulfonamide]
- Escherichia coli (NDM-1) MITC95 [1]: 1.563 µM
- Serratia marcescens (IMP-1) MITC95 [2]: 1.563 µM
- Efflux ratio [3]: 1.00

Compound: NCCCNC(=O)c1cccc(-c2ccc(S(=O)(=O)NCCN)c(S(N)(=O)=O)c2-c2nn[nH]n2)c1 [Example 341, 4′-(N-(2-aminoethyl)sulfamoyl)-N-(3-aminopropyl)-3′-sulfamoyl-2′-(2H-tetrazol-5-yl)-[1,1′-biphenyl]-3-carboxamide]
- Escherichia coli (NDM-1) MITC95 [1]: 0.7813 µM
- Serratia marcescens (IMP-1) MITC95 [2]: 1.563 µM
- Efflux ratio [3]: 2.00

Compound: CNc1nc2c(-c3ccc(S(=O)(=O)N[C@H]4CCNC4)c(S(N)(=O)=O)c3-c3nn[nH]n3)cccc2[nH]1 [Example 295, (S)-4-(2-(methylamino)-1H-benzo[d]imidazol-4-yl)-N1-(pyrrolidin-3-yl)-3-(2H-tetrazol-5-yl)benzene-1,2-disulfonamide]
- Escherichia coli (NDM-1) MITC95 [1]: 0.7813 µM
- Serratia marcescens (IMP-1) MITC95 [2]: 0.7813 µM
- Efflux ratio [3]: 1.00

Compound: Nc1nc2c(-c3ccc(S(=O)(=O)NC[C@]4(N)CCNC4)c(S(N)(=O)=O)c3-c3nn[nH]n3)cccc2s1 [Example 366, (S)-4-(2-aminobenzo[d]thiazol-4-yl)-N^1-((3-aminopyrrolidin-3-yl)methyl)-3-(2H-tetrazol-5-yl)benzene-1,2-disulfonamide]
- Escherichia coli (NDM-1) MITC95 [1]: 0.7813 µM
- Serratia marcescens (IMP-1) MITC95 [2]: 1.563 µM
- Efflux ratio [3]: 1.00

Compound: NS(=O)(=O)c1c(S(=O)(=O)N[C@@H]2CCNC2)ccc(-c2cnc3cc[nH]c3c2)c1-c1nn[nH]n1 [Example 282, (R)-N1-(pyrrolidin-3-yl)-4-(1H-pyrrolo[3,2-b]pyridin-6-yl)-3-(2H-tetrazol-5-yl)benzene-1,2-disulfonamide]
- Escherichia coli (NDM-1) MITC95 [1]: 0.7813 µM
- Serratia marcescens (IMP-1) MITC95 [2]: 0.7813 µM
- Efflux ratio [3]: 1.00

Compound: Nc1nc2c(-c3ccc(S(=O)(=O)NC[C@@H]4CNCCN4)c(S(N)(=O)=O)c3-c3nn[nH]n3)cccc2[nH]1 [Example 310, (S)-4-(2-amino-1H-benzo[d]imidazol-4-yl)-N1-(piperazin-2-ylmethyl)-3-(2H-tetrazol-5-yl)benzene-1,2-disulfonamide]
- Escherichia coli (NDM-1) MITC95 [1]: 0.7813 µM
- Serratia marcescens (IMP-1) MITC95 [2]: 0.7813 µM
- Efflux ratio [3]: 1.00

Compound: N[C@H]1CNC[C@H]1NS(=O)(=O)c1ccc(-c2cnc3cc[nH]c3c2)c(-c2nn[nH]n2)c1S(N)(=O)=O [Example 320]
- Escherichia coli (NDM-1) MITC95 [1]: 0.7813 µM
- Serratia marcescens (IMP-1) MITC95 [2]: 0.7813 µM
- Efflux ratio [3]: 2.00

Compound: NCc1nc2c(-c3ccc(S(=O)(=O)NC[C@@H](O)CN)c(S(N)(=O)=O)c3-c3nn[nH]n3)cccc2s1 [Example 306, (S)—N1-(3-amino-2-hydroxypropyl)-4-(2-(aminomethyl)benzo[d]thiazol-4-yl)-(2H-tetrazol-5-yl)benzene-1,2-disulfonamide]
- Escherichia coli (NDM-1) MITC95 [1]: 0.7813 µM
- Serratia marcescens (IMP-1) MITC95 [2]: 0.7813 µM
- Efflux ratio [3]: 1.00

Compound: NCc1nc2c(-c3ccc(S(=O)(=O)N[C@@H](CN)CO)c(S(N)(=O)=O)c3-c3nn[nH]n3)cccc2s1 [Example 381, (S)—N1-(1-amino-3-hydroxypropan-2-yl)-4-(2-(aminomethyl)benzo[d]thiazol-4-yl)-3-(2H-tetrazol-5-yl)benzene-1,2-disulfonamide]
- Escherichia coli (NDM-1) MITC95 [1]: 0.7813 µM
- Serratia marcescens (IMP-1) MITC95 [2]: 1.172 µM
- Efflux ratio [3]: 1.50

Compound: NC[C@@H](N)CNS(=O)(=O)c1ccc(-c2cnc(N)s2)c(-c2nn[nH]n2)c1S(N)(=O)=O [Example 377, (R)-4-(2-aminothiazol-5-yl)-N1-(2,3-diaminopropyl)-3-(2H-tetrazol-5-yl)benzene-1,2-disulfonamide]
- Escherichia coli (NDM-1) MITC95 [1]: 0.7813 µM
- Serratia marcescens (IMP-1) MITC95 [2]: 1.563 µM
- Efflux ratio [3]: 2.00

Compound: Nc1ncc(-c2ccc(S(=O)(=O)N[C@H]3CNC[C@H]3N)c(S(N)(=O)=O)c2-c2nn[nH]n2)s1 [Example 325, N1-((3S,4R)-4-aminopyrrolidin-3-yl)-4-(2-aminothiazol-5-yl)-3-(2H-tetrazol-5-yl)benzene-1,2-disulfonamide]
- Escherichia coli (NDM-1) MITC95 [1]: 0.7813 µM
- Serratia marcescens (IMP-1) MITC95 [2]: 1.563 µM
- Efflux ratio [3]: 2.00

Compound: C[C@@H](CN)NS(=O)(=O)c1ccc(-c2ccnc(N)c2)c(-c2nn[nH]n2)c1S(N)(=O)=O [Example 398, (S)-N^1-(1-aminopropan-2-yl)-4-(2-aminopyridin-4-yl)-3-(2H-tetrazol-5-yl)benzene-1,2-disulfonamide]
- Escherichia coli (NDM-1) MITC95 [1]: 3.125 µM
- Serratia marcescens (IMP-1) MITC95 [2]: 1.563 µM

Compound: NCCNS(=O)(=O)c1ccc(-c2cccc3ncccc23)c(-c2nn[nH]n2)c1S(N)(=O)=O [Example 360, N1-(2-aminoethyl)-4-(quinolin-5-yl)-3-(2H-tetrazol-5-yl)benzene-1,2-disulfonamide]
- Escherichia coli (NDM-1) MITC95 [1]: 1.563 µM
- Serratia marcescens (IMP-1) MITC95 [2]: 1.563 µM

Compound: NCc1nc2c(-c3ccc(S(=O)(=O)NC[C@@H]4CNCCN4)c(S(N)(=O)=O)c3-c3nn[nH]n3)cccc2[nH]1 [Example 311, (S)-4-(2-(aminomethyl)-1H-benzo[d]imidazol-4-yl)-N-(piperazin-2-ylmethyl)-3-(2H-tetrazol-5-yl)benzene-1,2-disulfonamide]
- Escherichia coli (NDM-1) MITC95 [1]: 1.563 µM
- Serratia marcescens (IMP-1) MITC95 [2]: 1.563 µM

Compound: C[C@H](N)Cc1nc2c(-c3ccc(S(N)(=O)=O)c(S(N)(=O)=O)c3-c3nn[nH]n3)cccc2[nH]1 [Example 442, (S)-4-(2-(2-aminopropyl)-1H-benzo[d]imidazol-4-yl)-3-(2H-tetrazol-5-yl)benzene-1,2-disulfonamide]
- Escherichia coli (NDM-1) MITC95 [1]: 1.563 µM
- Serratia marcescens (IMP-1) MITC95 [2]: 1.563 µM
